Where a SMILES comes first, the peptide text is derived from it. Bridges are numbered along the chain shown (N, C = ends). [ ]: non-standard residue; d: D form. The star is where a group is joined. hPhe(3,5-F2-4-CF3) = N[C@@H](CCc1cc(F)c(C(F)(F)F)c(F)c1)C(=O)O; hPhe(3-Cl-4-CF3) = N[C@@H](CCc1ccc(C(F)(F)F)c(Cl)c1)C(=O)O; NPrPhe(4-CF3) = CCCN[C@@H](Cc1ccc(C(F)(F)F)cc1)C(=O)O; NMeGly(cPent) = CN[C@H](C(=O)O)C1CCCC1; αMeCha = C[C@](N)(CC1CCCCC1)C(=O)O; Hyp = O=C(O)[C@@H]1C[C@@H](O)CN1; NMeD = CN[C@@H](CC(=O)O)C(=O)O; NMeL = CN[C@@H](CC(C)C)C(=O)O; Morpholide = C1CN(*)CCO1; Ac4c = NC1(C(=O)O)CCC1; NEtG = CCNCC(=O)O; Sar = CNCC(=O)O
Legend:
[1] = molecular target: GDP-bound NRAS wild-type protein (Homo sapiens, UniProt P01111); assay: Binding to NRAS by surface plasmon resonance (SPR), KD and KD ratio to KRAS
Procedure, shortened: (§1)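 Affinity is measured by surface plasmon resonance at 30°C against captured, GDP-loaded RAS carrying a biotinylated Avi tag. Compounds are titrated by single-cycle kinetics, and KD comes from a 1:1 fit.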

HRAS wild-type protein = HRAS wild-type protein (Homo sapiens, UniProt P01112); assay: Binding to HRAS by surface plasmon resonance (SPR), KD and KD ratio to KRAS
Procedure, shortened: as §1

[2] = system: human lung cancer strain NCI-H441; type: cell-based
Procedure, shortened: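 Readout: […] after the ATP-based reagent. Compound: serial dilutions in dimethyl sulfoxide.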

[3] = ratio of the KD value with respect to GDP-bound NRAS wild-type protein to the KD value with respect to KRAS
[4] = ratio of the KD value with respect to HRAS wild-type protein to the KD value with respect to KRAS
[5] = ratio of KD for GDP-bound NRAS wild-type protein to KD for KRAS
[6] = ratio of KD for HRAS wild-type protein to KD for KRAS

Sequence of GDP-bound NRAS wild-type protein (P01111 whole entry): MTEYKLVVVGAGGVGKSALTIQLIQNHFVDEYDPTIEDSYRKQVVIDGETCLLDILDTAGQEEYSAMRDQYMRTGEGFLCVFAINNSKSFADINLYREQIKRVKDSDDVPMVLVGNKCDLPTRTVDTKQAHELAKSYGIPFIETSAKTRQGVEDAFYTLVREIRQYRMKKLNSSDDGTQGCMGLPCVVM
Sequence of HRAS wild-type protein (P01112 whole entry): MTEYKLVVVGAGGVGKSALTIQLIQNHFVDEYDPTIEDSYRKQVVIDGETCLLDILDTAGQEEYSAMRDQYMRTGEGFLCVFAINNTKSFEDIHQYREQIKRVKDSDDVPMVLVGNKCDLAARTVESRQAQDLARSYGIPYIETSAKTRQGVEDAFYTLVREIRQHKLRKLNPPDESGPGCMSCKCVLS

Row | SMILES | NRAS /KRAS [1, 3] | HRAS /KRAS (HRAS wild-type protein; [4]) | IC50 [2] | NRAS /KRAS [1, 5] | HRAS /KRAS (HRAS wild-type protein; [6]) | NRAS /KRAS ([1]; ratio of KD value for GDP-bound NRAS wild-type protein to KD value for KRAS (SPR)) | HRAS /KRAS (HRAS wild-type protein; ratio of KD value for HRAS wild-type protein to KD value for KRAS (SPR))
1 | CCCN1C(=O)CN(C)C(=O)CN(CC)C(=O)[C@H]([C@@H](C)CC)NC(=O)[C@H](CC(C)C)N(C)C(=O)C[C@@H](C(=O)N2CCOCC2)N(C)C(=O)[C@H](C2CCCC2)N(C)C(=O)C2(CCC2)NC(=O)[C@@H]2C[C@@H](OCC)CN2C(=O)[C@H](CCc2ccc(C(F)(F)F)c(Cl)c2)NC(=O)CN(C)C(=O)[C@@H]1Cc1ccc(C(F)(F)F)cc1 [PP0401] ([NMeL]I[NEtG][Sar][NPrPhe(4-CF3)][Sar][hPhe(3-Cl-4-CF3)][Hyp](Et)[Ac4c][NMeGly(cPent)][NMeD]-Morpholide; lactam N-11) | B (a compound having 3 or more and less than 10 is denoted as B) | B (a compound having 3 or more and less than 10 is denoted as B) | 5.1 nM | – | – | – | –
2 | CCCN1C(=O)CN(C)C(=O)CN(C)C(=O)[C@H]([C@@H](C)CC)NC(=O)[C@H](CC(C)C)N(C)C(=O)C[C@@H](C(=O)N2CCOCC2)N(C)C(=O)[C@H](C2CCCC2)N(C)C(=O)[C@](C)(CC2CCCCC2)NC(=O)[C@@H]2CCCN2C(=O)[C@H](CCc2cc(F)c(C(F)(F)F)c(F)c2)NC(=O)CN(C)C(=O)[C@@H]1Cc1ccc(C(F)(F)F)cc1 [PP0760] ([NMeL]I[Sar][Sar][NPrPhe(4-CF3)][Sar][hPhe(3,5-F2-4-CF3)]P[αMeCha][NMeGly(cPent)][NMeD]-Morpholide; lactam N-11) | B (a compound having 3 or more and less than 10 is denoted as B) | C (A compound having a KD ratio of 0.1 or more and less than 3 is denoted as C) | 310 nM | – | – | – | –
3 | CCCN1C(=O)CN(C)C(=O)CNC(=O)[C@H]([C@@H](C)CC)NC(=O)[C@H](CC(C)C)N(C)C(=O)C[C@@H](C(=O)N2CCOCC2)N(C)C(=O)[C@H](C2CCCC2)N(C)C(=O)C2(CCC2)NC(=O)[C@@H]2CCCN2C(=O)[C@H](CCc2ccc(C(F)(F)F)c(Cl)c2)NC(=O)CN(C)C(=O)[C@@H]1Cc1ccc(C(F)(F)F)cc1 [PP0393] ([NMeL]IG[Sar][NPrPhe(4-CF3)][Sar][hPhe(3-Cl-4-CF3)]P[Ac4c][NMeGly(cPent)][NMeD]-Morpholide; lactam N-11) | B (a compound having 3 or more and less than 10 is denoted as B) | B (a compound having 3 or more and less than 10 is denoted as B) | 2.7 nM | – | – | – | –
4 | CCO[C@@H]1C[C@H]2C(=O)NC3(CC(C)(C)C3)C(=O)N(C)[C@@H](C3CCCC3)C(=O)N(C)[C@H](C(=O)N(C)C)CC(=O)N(C)[C@H]3CCCCCCc4ccc(cc4)C[C@@H](C(=O)N(C)CC(=O)N[C@@H](CCc4ccc(C(F)(F)F)c(OC)c4)C(=O)N2C1)N1CC/C=C\C[C@@H](C1=O)N(C)C(=O)CN(C)C(=O)[C@H]([C@@H](C)CC)NC3=O [PP3066] | – | – | 2.2 nM | A (a compound having 10 or more and less than 20 is denoted as A) | B (a compound having 3 or more and less than 10 is denoted as B) | – | –
5 | CC[C@H](C)[C@@H]1NC(=O)[C@H](CC(C)C)N(C)C(=O)C[C@@H](C(=O)N2CCOCC2)N(C)C(=O)[C@H](C2CCCC2)N(C)C(=O)C2(CCC2)NC(=O)[C@@H]2C[C@@H](C(F)(F)F)CN2C(=O)[C@H](CCc2cc(F)c(C(F)(F)F)c(F)c2)NC(=O)CN(C)C(=O)[C@H](Cc2ccc(C(F)(F)F)cc2)N2CCCC[C@@H](C2=O)N(C)C(=O)CN(C)C1=O [PP0809] | – | – | 8.4 nM | B (a compound having 3 or more and less than 10 is denoted as B) | B (a compound having 3 or more and less than 10 is denoted as B) | – | –
6 | CCO[C@@H]1C[C@H]2C(=O)NC3(CCC3)C(=O)N(C)[C@@H](C3CCCC3)C(=O)N(C)[C@H](C(=O)N3CCOCC3)CC(=O)N(C)[C@@H](CC(C)(C)C)C(=O)N[C@@H]([C@@H](C)CC)C(=O)N(C)CC(=O)N(C)[C@H]3CCCCN(C3=O)[C@@H](Cc3ccc(C(F)(F)F)cc3)C(=O)N(C)CC(=O)N[C@@H](CCc3cc(F)c(C(F)(F)F)c(F)c3)C(=O)N2C1 [PP0714] | C (A compound having a KD ratio of 0.1 or more and less than 3 is denoted as C) | B (a compound having 3 or more and less than 10 is denoted as B) | 5.1 nM | – | – | – | –
7 | CCO[C@@H]1C[C@H]2C(=O)NC3(CC(C)(C)C3)C(=O)N(C)[C@@H](C(CC)CC)C(=O)N(C)[C@H](C(=O)N3CCCC3)CC(=O)N(C)[C@@H](COC)C(=O)N[C@@H]([C@@H](C)CC)C(=O)N(C)CC(=O)N(C)[C@H]3C/C=C\CCN(C3=O)[C@@H](Cc3ccc(C)cc3)C(=O)N(C)CC(=O)N[C@@H](CCc3ccc(C(F)(F)F)c(Cl)c3)C(=O)N2C1 [PP2144] | AA (a compound having 20 or more is denoted as AA) | A (a compound having 10 or more and less than 20 is denoted as A) | 29 nM | – | – | – | –
8 | CCO[C@@H]1C[C@H]2C(=O)NC3(CCC3)C(=O)N(C)[C@@H](C3CCCC3)C(=O)N(C)[C@H](C(=O)N(C)C)CC(=O)N(C)[C@@H](CSC)C(=O)N[C@@H]([C@@H](C)CC)C(=O)N(C)CC(=O)N(C)[C@H]3C/C=C\CCN(C3=O)[C@@H](Cc3ccc(C(F)(F)F)cc3)C(=O)N(C)CC(=O)N[C@@H](CCc3cc(F)c(C(F)(F)F)c(F)c3)C(=O)N2C1 [PP1119] | – | – | 25.5 nM | A (a compound having 10 or more and less than 20 is denoted as A) | A (a compound having 10 or more and less than 20 is denoted as A) | – | –
9 | CCO[C@@H]1C[C@H]2C(=O)NC3(CC(C)(C)C3)C(=O)N(C)[C@@H](C3CCCC3)C(=O)N(C)[C@H](C(=O)N3CCCCC3)CC(=O)N(C)[C@H]3CC/C=C/c4ccc(cc4)C[C@@H](C(=O)N(C)CC(=O)N[C@@H](CCc4ccc(Cl)c(Cl)c4)C(=O)N2C1)N1CC/C=C\C[C@@H](C1=O)N(C)C(=O)CN(C)C(=O)[C@H]([C@@H](C)CC)NC3=O [PP2597] | – | – | 20.1 nM | A (a compound having 10 or more and less than 20 is denoted as A) | A (a compound having 10 or more and less than 20 is denoted as A) | – | –
10 | CCC[C@H]1C(=O)N[C@@H]([C@@H](C)CC)C(=O)N2CCC[C@H]2C(=O)N(C)[C@H]2C/C=C\CCN(C2=O)[C@@H](CC2CCC(F)(F)CC2)C(=O)N(C)CC(=O)N[C@@H](CCc2ccc(C(F)(F)F)c(OC)c2)C(=O)N2C[C@H](OCC)C[C@H]2C(=O)N(C)C2(CCC2)C(=O)N(C)[C@@H](C(CC)CC)C(=O)N(C)[C@H](C(=O)N(C)C)CC(=O)N1C [PP2353] | A (a compound having 10 or more and less than 20 is denoted as A) | A (a compound having 10 or more and less than 20 is denoted as A) | 68.8 nM | – | – | – | –
11 | CC[C@H](C)[C@@H]1NC(=O)[C@H](CC(C)C)N(C)C(=O)C[C@@H](C(=O)N2CCOCC2)N(C)C(=O)[C@H](C2CCCC2)N(C)C(=O)C2(CCC2)NC(=O)[C@@H]2CCCN2C(=O)[C@H](CCc2cc(F)c(C(F)(F)F)c(F)c2)NC(=O)CN(C)C(=O)[C@H](Cc2ccc(C(F)(F)F)cc2)N2CCCC[C@@H](C2=O)N(C)C(=O)CN(C)C1=O [PP0560] | B (a compound having 3 or more and less than 10 is denoted as B) | B (a compound having 3 or more and less than 10 is denoted as B) | 5.2 nM | – | – | – | –
12 | CCCN(C)C(=O)[C@@H]1CC(=O)N(C)[C@@H](C2CC2)C(=O)N[C@@H]([C@@H](C)CC)C(=O)N(C)CC(=O)N(C)[C@H]2C/C=C\CCN(C2=O)[C@@H](Cc2ccc(C(F)(F)F)cc2)C(=O)N(C)CC(=O)N[C@@H](CCc2ccc(C(F)(F)F)c(OC)c2)C(=O)N2C[C@H](OCC)C[C@H]2C(=O)NC2(CC(C)(C)C2)C(=O)N(C)[C@@H](C2CCCC2)C(=O)N1C [PP1983] | AA (a compound having 20 or more is denoted as AA) | A (a compound having 10 or more and less than 20 is denoted as A) | 20.2 nM | – | – | – | –
13 | CCCN1C(=O)CN(C)C(=O)CNC(=O)[C@H]([C@@H](C)CC)NC(=O)[C@H](CC(C)C)N(C)C(=O)C[C@@H](C(=O)N(C)C)NC(=O)[C@H](C2CCCC2)N(C)C(=O)C2(CCC2)NC(=O)[C@@H]2CCCN2C(=O)[C@H](CCc2ccc(C(F)(F)F)c(Cl)c2)NC(=O)CN(C)C(=O)[C@@H]1Cc1ccc(C(F)(F)F)cc1 [PP0362] ([NMeL]IG[Sar][NPrPhe(4-CF3)][Sar][hPhe(3-Cl-4-CF3)]P[Ac4c][NMeGly(cPent)]D-NMe2; lactam N-11) | – | – | 149 nM | B (a compound having 3 or more and less than 10 is denoted as B) | B (a compound having 3 or more and less than 10 is denoted as B) | – | –
14 | CCO[C@@H]1C[C@H]2C(=O)NC3(CCC3)C(=O)N(C)[C@@H](C3CCCC3)C(=O)N(C)[C@H](C(=O)N(C)C)CC(=O)N(C)C[C@@H](C)C(=O)N[C@@H]([C@@H](C)CC)C(=O)N(C)CC(=O)N(C)[C@H]3CCCCN(C3=O)[C@@H](Cc3ccc(C(F)(F)F)cc3)C(=O)N(C)CC(=O)N[C@@H](CCc3cc(F)c(C(F)(F)F)c(F)c3)C(=O)N2C1 [PP0706] | B (a compound having 3 or more and less than 10 is denoted as B) | B (a compound having 3 or more and less than 10 is denoted as B) | 5390 nM | – | – | – | –
15 | CCO[C@@H]1C[C@H]2C(=O)NC3(CC(C)(C)C3)C(=O)N(C)[C@@H](C3CCCC3)C(=O)N(C)[C@H](C(=O)N(C)C)CC(=O)N(C)[C@@H](CC(F)(F)F)C(=O)N[C@@H]([C@@H](C)CC)C(=O)N(C)CC(=O)N(C)[C@H]3C/C=C\CCN(C3=O)[C@@H](Cc3ccc(C(F)(F)F)cc3)C(=O)N(C)CC(=O)N[C@@H](CCc3ccc(C(F)(F)F)c(OC)c3)C(=O)N2C1 [PP1675] | – | – | 3 nM | – | – | A (a compound having 10 or more and less than 20 is denoted as A) | B (a compound having 3 or more and less than 10 is denoted as B)
